Where two headings read alike, the source gives them in different places.
Key:
Assay type in all cases: cell-based
[1] = Human tumor cell line growth assay (SRB); conditions: human, NCI-H522 cells (NSCLC), NCI-H522, 48 h
NCI-H522 = experiment: Human tumor cell line growth assay (SRB); conditions: Homo sapiens; NSCLC, NCI-H522, 48 h
MCF7 = experiment: Human tumor cell line growth assay (SRB); conditions: Breast, MCF7, 48 h; for CC50: read-out: LC50 (the source's name)
[2] = Human tumor cell line growth assay (SRB); conditions: human, SF-295 cells (CNS), SF-295, 48 h, read-out: LC50
SF-295 = experiment: Human tumor cell line growth assay (SRB); conditions: Homo sapiens; CNS, SF-295, 48 h
SN12C = experiment: Human tumor cell line growth assay (SRB); conditions: Renal, 48 h; for CC50: read-out: LC50 (the source's name)
[3] = Human tumor cell line growth assay (SRB); conditions: human, HCT-15 cells (colon), HCT-15, 48 h
HCT-15 = experiment: Human tumor cell line growth assay (SRB); conditions: Homo sapiens; Colon, HCT-15, 48 h
[4] = Human tumor cell line growth assay (SRB); conditions: human, SF-268 cells (CNS), SF-268, 48 h
SF-268 = experiment: Human tumor cell line growth assay (SRB); conditions: Homo sapiens; CNS, SF-268, 48 h
A498 = experiment: Human tumor cell line growth assay (SRB); conditions: Renal, A498, 48 h; for CC50: read-out: LC50 (the source's name)
ACHN = experiment: Human tumor cell line growth assay (SRB); conditions: Renal, 48 h; for CC50: read-out: LC50 (the source's name)
[5] = Human tumor cell line growth assay (SRB); conditions: human, NCI-H226 cells (NSCLC), NCI-H226, 48 h, read-out: LC50
NCI-H226 = experiment: Human tumor cell line growth assay (SRB); conditions: Homo sapiens; NSCLC, NCI-H226, 48 h
[6] = Human tumor cell line growth assay (SRB); conditions: human, OVCAR-4 cells (ovarian), OVCAR-4, 48 h, read-out: LC50
OVCAR-4 = experiment: Human tumor cell line growth assay (SRB); conditions: Homo sapiens; Ovarian, OVCAR-4, 48 h
[7] = Human tumor cell line growth assay (SRB); conditions: human, HOP-92 cells (NSCLC), HOP-92, 48 h
MDA-MB-468 = experiment: Human tumor cell line growth assay (SRB); conditions: Breast, MDA-MB-468, 48 h; for CC50: read-out: LC50 (the source's name)
MDA-MB-231/ATCC = experiment: Human tumor cell line growth assay (SRB); conditions: Breast, 48 h; for CC50: read-out: LC50 (the source's name)
[8] = Human tumor cell line growth assay (SRB); conditions: human, OVCAR-3 cells (ovarian), OVCAR-3, 48 h, read-out: LC50
OVCAR-3 = experiment: Human tumor cell line growth assay (SRB); conditions: Homo sapiens; Ovarian, OVCAR-3, 48 h
K-562 = experiment: Human tumor cell line growth assay (SRB); conditions: K562, Leukemia, K-562, 48 h; for CC50: read-out: LC50 (the source's name)
[9] = Human tumor cell line growth assay (SRB); conditions: human, M14 cells (melanoma), M14, 48 h, read-out: LC50
M14 = experiment: Human tumor cell line growth assay (SRB); conditions: Homo sapiens; Melanoma, M14, 48 h
[10] = Human tumor cell line growth assay (SRB); conditions: human, UACC-257 cells (melanoma), UACC-257, 48 h, read-out: LC50
UACC-257 = experiment: Human tumor cell line growth assay (SRB); conditions: Homo sapiens; Melanoma, UACC-257, 48 h
[11] = Human tumor cell line growth assay (SRB); conditions: human, OVCAR-5 cells (ovarian), OVCAR-5, 48 h, read-out: LC50
OVCAR-5 = experiment: Human tumor cell line growth assay (SRB); conditions: Homo sapiens; Ovarian, OVCAR-5, 48 h
[12] = Human tumor cell line growth assay (SRB); conditions: human, SF-539 cells (CNS), SF-539, 48 h, read-out: LC50
SF-539 = experiment: Human tumor cell line growth assay (SRB); conditions: Homo sapiens; CNS, SF-539, 48 h
PC-3 = experiment: Human tumor cell line growth assay (SRB); conditions: Prostate, PC-3, 48 h; for CC50: read-out: LC50 (the source's name)
[13] = Human tumor cell line growth assay (SRB); conditions: human, KM12 cells (colon), KM12, 48 h, read-out: LC50
KM12 = experiment: Human tumor cell line growth assay (SRB); conditions: Homo sapiens; Colon, KM12, 48 h
[14] = Human tumor cell line growth assay (SRB); conditions: human, U251 cells (CNS), U251, 48 h, read-out: LC50
U251 = experiment: Human tumor cell line growth assay (SRB); conditions: Homo sapiens, U-251; CNS, U251, 48 h
DU-145 = experiment: Human tumor cell line growth assay (SRB); conditions: Prostate, DU-145, 48 h; for CC50: read-out: LC50 (the source's name)
RXF 393 = experiment: Human tumor cell line growth assay (SRB); conditions: Renal, RXF 393, 48 h; for CC50: read-out: LC50 (the source's name)

## Cc1cc2nc3c4ccccc4n(CCN(C)C)c3nc2cc1C [B220, 2-(2,3-dimethyl-6H-indolo [2,3-b]quinoxalin-6-yl)-N,N-dimethylethanamine, reference compound]
[1]
  LC50 at 48 h: > 100 µM
NCI-H522
  GI50: 0.673 µM
MCF7
  GI50: 1.41 µM
  CC50: 34.8 µM
[2]
  CC50 at 48 h: 42.5 µM
SF-295
  GI50: 1.39 µM
SN12C
  GI50: 1.08 µM
  CC50: > 100 µM
[3]
  LC50 (concentration killing 50% of cells) at 48 h: > 100 µM
HCT-15
  GI50: 1.77 µM
[4]
  LC50 (50% lethal concentration) at 48 h: 28 µM
SF-268
  GI50: 1.45 µM
A498
  GI50: 1.43 µM
  CC50: 5.74 µM
ACHN
  GI50: 0.555 µM
  CC50: 42.2 µM
[5]
  CC50 at 48 h: > 100 µM
NCI-H226
  GI50: 2.01 µM
[6]
  CC50 at 48 h: > 100 µM
OVCAR-4
  GI50: 2.55 µM
[7]
  LC50 at 48 h: > 100 µM
MDA-MB-468
  GI50: 1.32 µM
  CC50: 9.93 µM
MDA-MB-231/ATCC
  GI50: 1.76 µM
  CC50: 54.9 µM
[8]
  CC50 at 48 h: 56.8 µM
OVCAR-3
  GI50: 1.91 µM
K-562
  GI50: 1.99 µM
  CC50: > 100 µM
[9]
  CC50 at 48 h: 75.1 µM
M14
  GI50: 1.51 µM
[10]
  CC50 at 48 h: 5.99 µM
UACC-257
  GI50: 1.94 µM
[11]
  CC50 at 48 h: 33.4 µM
OVCAR-5
  GI50: 2.1 µM
[12]
  CC50 at 48 h: 15 µM
SF-539
  GI50: 1.83 µM
PC-3
  GI50: 2.01 µM
  CC50: > 100 µM
[13]
  CC50 at 48 h: 38.6 µM
KM12
  GI50: 1.93 µM
[14]
  CC50 at 48 h: 44.6 µM
U251
  GI50: 2.01 µM
DU-145
  GI50: 2.07 µM
  CC50: 55.6 µM
RXF 393
  GI50: 1.56 µM
  CC50: 12.2 µM

## COc1ccc2c(c1)c1nc3cc(C)c(C)cc3nc1n2CCN(C)C [JBA-094, 2-(9-methoxy-2,3-dimethyl-6H-indolo[2,3-b]quinoxalin-6-yl)-N,N-dimethylethanamine]
[1]
  LC50 at 48 h: > 100 µM
NCI-H522
  GI50: 0.515 µM
MCF7
  GI50: 0.332 µM
  CC50: 4.79 µM
[2]
  CC50 at 48 h: 5.13 µM
SF-295
  GI50: 1.11 µM
SN12C
  GI50: 0.503 µM
  CC50: 5.24 µM
[3]
  LC50 (concentration killing 50% of cells) at 48 h: 5.57 µM
HCT-15
  GI50: 0.41 µM
[4]
  LC50 (50% lethal concentration) at 48 h: 8.23 µM
SF-268
  GI50: 1.33 µM
A498
  GI50: 1.48 µM
  CC50: 5.56 µM
ACHN
  GI50: 0.358 µM
  CC50: 3.96 µM
[5]
  CC50 at 48 h: 8.2 µM
NCI-H226
  GI50: 1.24 µM
[6]
  CC50 at 48 h: 5.56 µM
OVCAR-4
  GI50: 1.02 µM
[7]
  LC50 at 48 h: 6.08 µM
MDA-MB-468
  GI50: 0.749 µM
  CC50: 6.9 µM
MDA-MB-231/ATCC
  GI50: 1.14 µM
  CC50: 6.39 µM
[8]
  CC50 at 48 h: 6.13 µM
OVCAR-3
  GI50: 1.26 µM
K-562
  GI50: 0.444 µM
  CC50: > 100 µM
[9]
  CC50 at 48 h: 5.89 µM
M14
  GI50: 1.12 µM
[10]
  CC50 at 48 h: 7.97 µM
UACC-257
  GI50: 1.5 µM
[11]
  CC50 at 48 h: 5.28 µM
OVCAR-5
  GI50: 1.12 µM
[12]
  CC50 at 48 h: 5.2 µM
SF-539
  GI50: 0.663 µM
PC-3
  GI50: 1.12 µM
  CC50: 5.84 µM
[13]
  CC50 at 48 h: 6.36 µM
KM12
  GI50: 1.05 µM
[14]
  CC50 at 48 h: 6.09 µM
U251
  GI50: 0.526 µM
DU-145
  GI50: 1.01 µM
  CC50: 5.32 µM
RXF 393
  GI50: 1.18 µM
  CC50: 6.9 µM

## Cc1cc2nc3c4cc([N+](=O)[O-])ccc4n(CCN(C)C)c3nc2cc1C [JBA-185, 2-(2,3-dimethyl-9-nitro-6H-indolo[2,3-b]quinoxalin-6-yl)-N,N-dimethylethanamine]
[1]
  LC50 at 48 h: > 100 µM
NCI-H522
  GI50: 0.595 µM
MCF7
  GI50: 0.356 µM
  CC50: > 100 µM
[2]
  CC50 at 48 h: 8.64 µM
SF-295
  GI50: 0.388 µM
SN12C
  GI50: 0.479 µM
  CC50: > 100 µM
[3]
  LC50 (concentration killing 50% of cells) at 48 h: > 100 µM
HCT-15
  GI50: 0.349 µM
[4]
  LC50 (50% lethal concentration) at 48 h: > 100 µM
SF-268
  GI50: 0.793 µM
A498
  GI50: 1.26 µM
  CC50: 5.5 µM
ACHN
  GI50: 0.316 µM
  CC50: 2.46 µM
[5]
  CC50 at 48 h: > 100 µM
NCI-H226
  GI50: 0.521 µM
[6]
  CC50 at 48 h: > 100 µM
OVCAR-4
  GI50: 0.452 µM
[7]
  LC50 at 48 h: > 100 µM
MDA-MB-468
  GI50: 0.374 µM
  CC50: 5.3 µM
MDA-MB-231/ATCC
  GI50: 0.495 µM
  CC50: > 100 µM
[8]
  CC50 at 48 h: > 100 µM
OVCAR-3
  GI50: 0.59 µM
K-562
  GI50: 0.36 µM
  CC50: > 100 µM
[9]
  CC50 at 48 h: 7.28 µM
M14
  GI50: 0.499 µM
[10]
  CC50 at 48 h: 34.4 µM
UACC-257
  GI50: 0.732 µM
[11]
  CC50 at 48 h: > 100 µM
OVCAR-5
  GI50: 0.587 µM
[12]
  CC50 at 48 h: 18.1 µM
SF-539
  GI50: 0.387 µM
PC-3
  GI50: 0.187 µM
  CC50: > 100 µM
[13]
  CC50 at 48 h: > 100 µM
KM12
  GI50: 0.567 µM
[14]
  CC50 at 48 h: > 100 µM
U251
  GI50: 0.47 µM
DU-145
  GI50: 0.54 µM
  CC50: > 100 µM
RXF 393
  GI50: 0.638 µM
  CC50: 5.5 µM

## Cc1cc2nc3c4cc(O)ccc4n(CCN(C)C)c3nc2cc1C [JBD-139, 6-(2-(dimethylamino)ethyl)-2,3-dimethyl-6H-indolo [2,3-b]quinoxalin-9-ol]
[1]
  LC50 at 48 h: > 100 µM
NCI-H522
  GI50: 0.39 µM
MCF7
  GI50: 0.351 µM
  CC50: > 100 µM
[2]
  CC50 at 48 h: > 100 µM
SF-295
  GI50: 0.756 µM
SN12C
  GI50: 0.397 µM
  CC50: > 100 µM
[3]
  LC50 (concentration killing 50% of cells) at 48 h: > 100 µM
HCT-15
  GI50: 0.405 µM
[4]
  LC50 (50% lethal concentration) at 48 h: > 100 µM
SF-268
  GI50: 0.822 µM
A498
  GI50: 0.948 µM
  CC50: 5.69 µM
ACHN
  GI50: 0.307 µM
[5]
  CC50 at 48 h: 19.5 µM
NCI-H226
  GI50: 1.34 µM
OVCAR-4
  GI50: 0.882 µM
[7]
  LC50 at 48 h: > 100 µM
MDA-MB-468
  GI50: 0.518 µM
  CC50: > 100 µM
MDA-MB-231/ATCC
  GI50: 0.544 µM
OVCAR-3
  GI50: 0.97 µM
K-562
  GI50: 0.338 µM
  CC50: > 100 µM
[9]
  CC50 at 48 h: 5.15 µM
M14
  GI50: 0.378 µM
UACC-257
  GI50: 0.597 µM
[11]
  CC50 at 48 h: > 100 µM
OVCAR-5
  GI50: 0.867 µM
SF-539
  GI50: 0.422 µM
PC-3
  GI50: 0.491 µM
KM12
  GI50: 0.512 µM
U251
  GI50: 0.356 µM
DU-145
  GI50: 0.598 µM
  CC50: > 100 µM
RXF 393
  GI50: 0.671 µM
  CC50: 5.96 µM

From patent publication US20230312578A1, “6H-INDOLO[2,3-B]QUINOXALINE DERIVATIVES USEFUL IN THERAPY” (Vironova Medical AB, priority 2020, published 2023)
